The numbers were not newly measured in PMC6572427, “Peptosome Coadministration Improves Nanoparticle Delivery to Tumors through NRP1-Mediated Co-Endocytosis” (Biomolecules, 2019), which cites them from elsewhere.

The conditions of the data set: in vivo.

Text: Therefore, its fluorescence signal can be used to reflect the integrity of peptosomes and estimate the in vivo plasma stability. […] Blood was then collected at different time points after the injection as described in the methods, and the fluorescence signals were detected using an IVIS Spectrum in vivo ...

On to CRGDKGPDC [iRGD], for which the plasma half-life result is “eight”.
